Reference: patent US20250197428A1, “INHIBITORS OF KIF18A AND USES THEREOF” (ACCENT THERAPEUTICS, INC., priority 2022, published 2025)

Test system: OVCAR-3 xenografts
Test: 28 day in vivo efficacy in OVCAR-3 xenografts
Set-up: species or system female NOD SCID mice
Details: day 28, 30 mg/kg once daily, oral
Procedure: Experiments were performed in female NOD SCID mice (GenPharmatech Co.). Animals were allowed to acclimate for 7 days before the study. The general health of the animals were evaluated by a veterinarian, and complete health checks were performed prior to the study. General procedures for animal care and housing were in accordance with the standard, Commission on Life Sciences, National Research Council, Standard Operating Procedures (SOPs) of Pharmaron, Inc. The mice were kept in laminar flow rooms at constant temperature and humidity with 3-5 mice in each cage. Animals were housed in polycarbonate cages which had dimensions of 300×180×150 mm^3 and in an environmentally monitored, well-ventilated room maintained at a temperature of 23±3° C. and a relative humidity of 40%-70%. Fluorescent lighting provided illumination approximately 12 hours per day. Animals had free access to irradiation sterilized dry granule food during the entire study period except for time periods specified by the protocol, as well as sterile drinking water in a bottle that was available ad libitum during the quarantine and study periods.
The OVCAR-3 (ATCC) tumor cell lines were maintained in vitro as a monolayer in RPMI 1640 medium supplemented with 20% heat inactivated FBS, at 37° C. in an atmosphere of 5% CO2 in air. The tumor cells were sub-cultured, not exceeding 4-5 passages, and cells growing in an exponential growth phase were harvested and counted for tumor inoculation. Each mouse was inoculated subcutaneously on the right flank with OVCAR-3 tumor cells (2×10^7) in 0.2 mL of RPMI-1640 with Matrigel (1:1) for model development.
Treatment was started when the mean tumor size reached approximately 150-200 mm^3, at which time the mice were randomized into treatment groups such that the average starting tumor size is similar for each treatment group. Animals were then treated with vehicle or indicated mg/kg (10-100) of compound at a given frequency (e.g., BID, QD, 4 days on treatment followed by 3 days off treatment) by oral gavage at a final dosing volume of 10 mL/kg.
The measurement of tumor size was conducted with a caliper and recorded twice per […] week. The tumor volume (TV) (mm^3) was estimated using the formula: TV=a×b^2/2, where “a” and “b” are long and short diameters of a tumor, respectively.
The TVs were used for calculation of the tumor growth inhibition and tumor growth delay. For the tumor growth inhibition (TGI), the value using the formula: […]
The “TVfinal” and “TVinitial” are the mean tumor volumes on the final day and initial day, respectively.
All statistical tests was conducted on GraphPad, and the level of significance was set at 5% or P<0.05. The group means and standard deviations were calculated for all measurement parameters. Two-way RM ANOVA followed by Tukeys post hoc comparisons of the means was applied among groups.
Additionally, after compound treatment, the animals were observed an additional 28 days without compound treatment.
The initial treatment period with Example 1 was 28 days, after which overall efficacy and tolerability were evaluated based on tumor volume and body weight changes observed during the treatment period (FIG. 2a and FIG. 2b).
The initial treatment period with Example 1 was 28 days, after which overall efficacy and tolerability were evaluated based on tumor volume and body weight changes observed during the treatment period (FIG. 3a and FIG. 3b).

## Cc1cc(NC(=O)c2ccc(NS(=O)(=O)CCO)cc2N2CC[C@@]3(C(F)F)C[C@H]3C2)nc(N2CCC(F)(F)CC2)n1 (single isomer, unassigned) [Example 29b]
  % T/C: 1%
  % TGI: 99%
